{
  "source": "patent US9238022B2",
  "about": "“Xanthanodien for the treatment of cancer” (priority 2010, dated 2016)",
  "key": {"[1]": {"test_system": "normal human diploid fibroblasts", "assay": "In vitro cytotoxicity test on normal cells", "assay_type": "cell-based", "protocol": "The cultures were maintained in a humidified atmosphere of 5% CO2 at 37° C.\n(§1) The in exponential growth cultures (in triplicates) were treated with the compound, dissolved in dimethyl sulfoxide (DMSO) and added at final concentrations of 1, 5, and 10 μg/mL. In 2 mL medium/well 10% Alamar blue was added and 100 μl of the supernatant of the 24-well plates after 24, 48 and 72 hrs were pipetted into 96-well plates (Costar, USA). Cell viability was measured with a 96-well plate reader (Molecular Devices Ltd, UK).\n(§2) Ovarian cancer cells JC, NIH:OVCAR-3, Skov-3, fibroblasts as well as melanoma cancer cells MM-AN were used for cytotoxicity tests with EPD and EPA. The final concentrations of EPD and EPA added to the growth medium were 1, 5 and 10 μg/ml per well.\n(§3) Photographs were taken from the ovarian cancer cell line JC, the melanoma cell line MM-An and normal fibroblasts in 24-well plates using a Leica inverted microscope at a magnification of 100 times. Concentrations of EPD ranged 1-10 μg/mL and the experiments were terminated at 48 and 72 hrs (FIGS. 6-8)."}, "[2]": {"test_system": "ovarian cancer cells JC, NIH:OVCAR-3, SKOV-3", "assay": "In vitro cytotoxicity test (Alamar blue, microscopy) on ovarian cancer cells", "assay_type": "cell-based", "conditions": "for cytotoxicity towards ovarian cancer cells (in words): 1, 5 and 10 μg/mL", "protocol": "(§4) Cells used in the assays were an ovarian cell line, JC (van Haaften-Day et al. 1983. Cancer Research 43: 3725-3731), OVCAR-3 and SKOV-3, The American Type Culture Collection (ATCC), a melanoma line (MM-An, Byers et al. 1991. Am J Path 139, No 2: 423-435) and normal human diploid fibroblasts primary cultures (Brookes et al. 2002 The EMBO Journal Vol. 21, No. 12: 2936-2945).\n(§5) In vitro cytotoxicity tests were performed using a non-fluorescent substrate, Alamar blue (BioSource, Invitrogen, UK) as described by Page et al. (Page B, Page M and Noel C. 1993. International Journal of Oncology 3: 473-476).\n(§6) Ovarian cancer cells (1×10^4 or 5×10^4) were seeded in 24-well plates (Costar, USA) and grown in RPMI-1640, supplemented with 6 mM L-glutamine, 10% fetal calf serum (FCS) (Gibco, Invitrogen, UK) and penicillin (100 units/mL) and streptomycin (100 μg/mL), while melanoma cells and normal fibroblasts were grown in Dulbecco's modified Eagle medium (DMEM), also supplemented with L-glutamine and FCS. The cultures were maintained in a humidified atmosphere of 5% CO2 at 37° C.\nas §1, §2, §3\nCell viability was measured by adding 10% Alamar Blue (BioSource, Invitrogen, UK) to ovarian cancer cell cultures (OVCAR-3, SKOV-3) to 1, 5 and 10 μg/ml of EPD and to the control cultures (as described above). After 24, 48 and 72 hours incubation, 100 μl of culture supernatant was taken and cell viability measured with a plate reader (Molecular Devices, Ltd, UK) according to the manufacturer's instructions. The results are depicted in FIGS. 3-5 and confirm that the phenomenon observed in the photographs of FIGS. 6-8 is cell death."}, "melanoma cells MM-AN": {"test_system": "melanoma cells MM-AN", "assay": "In vitro cytotoxicity test on melanoma cells", "assay_type": "cell-based", "protocol": "as §4, §5, §6, §1, §2, §3"}, "NIH:OVCAR-3 cells": {"test_system": "NIH:OVCAR-3 cells", "assay": "Ovarian cancer animal model (i.p. OVCAR-3 ascites)", "assay_type": "in vivo, Balb/c nu/nu mice", "protocol": "In order to assess the efficacy of EPD in the treatment of ovarian cancer, in vivo experiments were performed with Balb/c nu/nu mice (Charles River Laboratories, France). As a model system of advanced ovarian cancer, a total of 20 Balb/c nu/nu mice were inoculated intra-peritoneally (i.p.) with 1.0×10^7 cells NIH:OVCAR-3 cells (American Type Culture Collection (ATCC number: HTB-161™)/200 μl PBS. NIH:OVCAR-3 is an appropriate model system in which to study drug resistance in ovarian cancer. Upon inoculation into the abdominal cavity ascites were formed at first in only 5 mice. One mouse after having developed a large abdomen was sacrificed and the ascites cells were inoculated into the 15 mice which had not developed ascites. Another mouse was sacrificed to freeze down the cells. […] The 15 mice without ascites were devided into 3 groups of 5 mice. One group served as control, one group received the standard chemotherapy cisplatin and one group received the test drug EPD.\nDrugs were given 200 μl/mouse i.p. in order to assess their efficacy as anti-tumor drug. The weight of mice when drug-treated varied between 22 and 26 gram, all with a swollen abdomen. Reduction of the swollen abdomen of the mice (resulting from the killing of the OVCAR-3 cells) was then studied.\nEremophila-1(10)-11(13)-dien-12,8β-olide (EPD) was administered at 20 mg/kg body weight. EPD was isolated from Calomeria amaranthoides as described in Example 1 above. The drug was inoculated twice a week into the abdominal cavity of the mice."}, "leukocytes": {"test_system": "leukocytes", "conditions": "Dupuis & Brisson 1976; cited from earlier work"}, "P388 Leukemia": {"test_system": "P388 Leukemia", "conditions": "NCI screening data 1972; cited from earlier work"}, "[3]": {"conditions": "20 mg/kg i.p. twice a week for 6 weeks"}},
  "note": "“Also recorded” adds a separate entry of the source.",
  "data": [
    {"smiles": "C=C(C(=O)O)[C@@H]1CCC2=CCC[C@H](C)[C@@]2(C)C1", "note": "[EPA, eremophila-1(10),11(13)-dien-12-oic acid]", "values": [
      {"measurement": "cytotoxicity towards normal fibroblasts (in words)", "setting": "[1]; 1, 5 and 10 μg/mL", "result": "no cytotoxicity"},
      {"measurement": "cytotoxicity towards ovarian cancer cells (in words)", "setting": "[2]", "result": "non-cytotoxic; also recorded: no cytotoxicity; also recorded: did not show cytotoxic effects"},
      {"measurement": "cytotoxicity towards melanoma cells (in words)", "setting": "melanoma cells MM-AN; 1, 5 and 10 μg/mL", "result": "no cytotoxicity"}
    ]},
    {"smiles": "C=C1C(=O)O[C@@H]2CC3=CCC[C@H](C)[C@@]3(C)C[C@H]12", "note": "[EPD, eremophila-1(10)-11(13)-dien-12,8β-olide]", "values": [
      {"measurement": "effect on normal cells at 5 μg/mL", "setting": "[1]; 5 μg/mL, 48 hours", "result": "not or little affected; also recorded: largely unaffected; also recorded: little affected"},
      {"measurement": "effect on normal fibroblasts at 10 μg/mL", "setting": "[1]; 10 μg/mL, 48 hours", "result": "more evidence of cell death"},
      {"measurement": "effect on cancer cells at 1 μg/mL", "setting": "[2]; 1 μg/mL, in vitro", "result": "many cancer cells were floating in the wells; also recorded: great cell loss was already seen; also recorded: substantial killing of cancer cells"},
      {"measurement": "cell death of cancer cells at 5 μg/mL", "setting": "[2]; 5 μg/mL, 48 hours", "result": "Cell death was observed in the majority of cancer cells; also recorded: killed"},
      {"measurement": "cell death of cancer cells at 10 μg/mL", "setting": "[2]; 10 μg/mL, 48 hours", "result": "All cells were dead"},
      {"measurement": "cytotoxicity towards ovarian cancer cells (in words)", "setting": "[2]", "result": "significant activity; also recorded: very clear cytotoxic effects"},
      {"measurement": "selectivity, cancer cells over normal cells", "setting": "[2]; in vitro, compared with normal cells", "result": "selectively kills cancer cells over normal cells"},
      {"measurement": "general health, side effects", "setting": "NIH:OVCAR-3 cells; [3]", "result": "looked very healthy; also recorded: did not show any signs of side effects"},
      {"measurement": "swelling of the abdomen (ascites)", "setting": "NIH:OVCAR-3 cells; [3]", "result": "reduced during treatment; also recorded: remission of cancer; also recorded: the ascites disappeared"},
      {"measurement": "survival", "setting": "NIH:OVCAR-3 cells; i.p. twice a week for 6 weeks", "result": "all the animals survived the study"},
      {"measurement": "return of ascites after end of treatment", "setting": "NIH:OVCAR-3 cells; three mice kept one month without further treatment after 6 weeks of treatment", "result": "In one mouse the ascites returned, two mice did not develop ascites again"},
      {"measurement": "cell death of cancer cells at 5 μg/mL", "setting": "melanoma cells MM-AN; 5 μg/mL, 48 hours, MM-An", "result": "Cell death was observed in the majority of cancer cells"},
      {"measurement": "cell death of cancer cells at 10 μg/mL", "setting": "melanoma cells MM-AN; 10 μg/mL, 48 hours, MM-An", "result": "All cells were dead"}
    ]},
    {"smiles": "C=C1C(=O)O[C@@H]2C[C@@]3(C)CCC[C@H](C)C3=C[C@H]12", "note": "[alantolactone]", "values": [
      {"measurement": "toxicity to leukocytes", "setting": "leukocytes", "result": "toxic"}
    ]},
    {"smiles": "N.N.[Cl][Pt][Cl]", "note": "[cisplatin, reference compound]", "values": [
      {"measurement": "killing of cancer cells, parallel comparison", "setting": "[2]; comparison of crude extract, cisplatin and docetaxol, concentration of the drugs not given", "result": "all killed; also recorded: completely kill"},
      {"measurement": "swelling of the abdomen (ascites)", "setting": "NIH:OVCAR-3 cells; 5 mg/kg i.p. once a week for 4 weeks", "result": "reduced during treatment"},
      {"measurement": "general health, side effects", "setting": "NIH:OVCAR-3 cells; 5 mg/kg i.p. once a week, 4 weeks", "result": "got very sick; also recorded: had to be euthanized"}
    ]},
    {"smiles": "CC(=O)O[C@@]12CO[C@@H]1C[C@H](O)[C@@]1(C)C(=O)[C@H](O)C3=C(C)[C@@H](OC(=O)[C@H](O)[C@@H](NC(=O)OC(C)(C)C)c4ccccc4)C[C@@](O)([C@@H](OC(=O)c4ccccc4)[C@H]21)C3(C)C", "note": "[docetaxol, reference compound]", "values": [
      {"measurement": "killing of normal cells, parallel comparison", "setting": "[1]; concentration of the drugs not given", "result": "completely kill"}
    ]},
    {"smiles": "C=C1C(=O)O[C@H]2CC3=CCC[C@H](C)[C@@]3(C)C[C@@H]12", "note": "[napthofuranone, (3aβ,4aα,5α,9aβ)-3a,4,4a,5,6,7,9,9a-octahydro 4a,5-dimethyl-3-methylene naphtho[2,3-b]furan-2(3H)-2-one]", "values": [
      {"measurement": "in vivo anti-tumor activity", "setting": "P388 Leukemia", "result": "no clear results"}
    ]}
  ]
}
